Literature values in patent US20040180034A1, “Anthelmintic resinates and a method for their preparation” (priority 2003, published 2004).

- cats experiencing weakness, salivation, or nausea (after injection): approximately one cat in ten
- animals experiencing nausea (oral form): at least one out of twenty
Structure (SMILES): O=C(C1CCCCC1)N1CC(=O)N2CCc3ccccc3C2C1 (centres unmarked) [Praziquantel, 4H-Pyrazino[2,1-a]isoquinolin-4-one, 2-(cyclohexylcarbonyl)-1,2,3,6,7,11b-hexahydro-(9CI)]
